Experimental data from patent US8642611B2, “Alkynylpyrimidines and salts thereof, pharmaceutical compositions comprising same, methods of preparing same and uses of same” (Bayer Intellectual Property GmbH, priority 2007, dated 2014).

Assays:
[1] = biological target: T1, human Aurora-C (Homo sapiens, UniProt Q9UQB9); assay: Aurora-C Kinase Assay; assay type: biochemical; conditions: Aurora-C HTRF, 10 μM ATP; read-out: Aurora C activity (assay 7)
T1 construct: GST; made in house; host or cells: transiently transfected HEK293 cells (the print adds '(Sf9)', which contradicts this)
T1 sequence (Q9UQB9 1-309): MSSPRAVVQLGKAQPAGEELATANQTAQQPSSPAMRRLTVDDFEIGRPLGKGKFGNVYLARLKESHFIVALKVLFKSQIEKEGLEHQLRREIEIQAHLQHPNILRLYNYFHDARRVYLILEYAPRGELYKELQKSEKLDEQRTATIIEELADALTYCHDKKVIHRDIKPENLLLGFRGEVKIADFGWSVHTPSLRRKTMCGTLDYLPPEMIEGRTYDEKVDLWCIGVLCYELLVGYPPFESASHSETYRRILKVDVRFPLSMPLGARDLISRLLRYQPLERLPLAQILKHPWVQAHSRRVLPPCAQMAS
From the text: Assay 7: Aurora-C Kinase Assay
Aurora-C inhibitory activity of compounds of the present invention was quantified employing the Aurora-C HTRF assay as described in the following paragraphs.
Recombinant fusion protein of GST and human Aurora-C was expressed in transiently transfected HEK293 cells […] and purified by Glutathion-Sepharose affinity chromatography. As substrate for the kinase reaction biotinylated peptide biotin-Ttds-FMRLRRLSTKYRT (C-terminus in amid form) was used which can be purchased e.g. form the company JERINI peptide technologies (Berlin, Germany). Aurora-C was incubated for 60 min at 22° C. in the presence of different concentrations of test compounds in 5 μl assay buffer [25 mM Hepes/NaOH pH 7.4, 0.5 mM MnCl2, 2.0 mM dithiothreitol, 0.1 mM sodium ortho-vanadate, 10 μM adenosine-tri-phosphate (ATP), […] substrate, 0.01% (v/v) TritonX-100 (Sigma), 0.05% (w/v) bovine serum albumin, 1% (v/v) dimethylsulfoxide]. The concentration of Aurora-C was adjusted depending of the activity of the enzyme lot and was chosen appropriate to have the assay in the linear range, typical concentrations were in the range of 0.3 nM. The reaction was stopped by the addition of 5 μl of a solution of HTRF detection reagents (0.2 μM streptavidine-XLent and 1.4 nM Anti-Phospho-(Ser/Thr) Akt substrate-Cryptate (C is biointernational, France, product no. 61PO2KAE), a labeled Phospho-(Ser/Thr) Akt substrate antibody [product #9611B, Cell Signaling Technology, Danvers, Mass., USA] labeled with Europium Cryptate, in an aqueous EDTA-solution (40 mM EDTA, 400 mM KF, 0.05% (w/v) bovine serum albumin in 25 mM HEPES/NaOH pH 7.0).
The resulting mixture was incubated 1 h at 22° C. to allow the binding of the biotinylated phosphorylated peptide to the streptavidine-XLent and the Anti-Phospho-(Ser/Thr) Akt substrate-Cryptate. Subsequently the amount of phosphorylated substrate was evaluated by measurement of the resonance energy transfer from the Prot-A-EuK to the streptavidine-XLent. Therefore, the fluorescence emissions at 620 nm and 665 nm after excitation at 350 nm was measured in a HTRF reader, e.g. a Rubystar (BMG Labtechnologies, Offenburg, Germany) or a Viewlux (Perkin-Elmer). The ratio of the emissions at 665 nm and at […] was taken as the measure for the amount of phosphorylated substrate. The data were normalised (enzyme reaction without inhibitor=0% inhibition, all other assay components but no enzyme=100% inhibition) and IC50 values were calculated by a 4 parameter fit using an inhouse software.

[2] = biological target: Tie2 (Homo sapiens, UniProt Q02763); assay: Tie2 ELISA assay (cellular Tie2 autophosphorylation, angiopoietin-2 stimulated); assay type: cell-based; design: expressed in transfected cells; host or cells: CHO (DHFR-deficient), stably transfected with Tie2; conditions: CHO cells stably transfected with Tie2, stimulated by angiopoietin-2; Tie2 autophosphorylation by sandwich-ELISA; read-out: Tie2 activity (assay 1)
Chain of Tie2 (Q02763 23-1124): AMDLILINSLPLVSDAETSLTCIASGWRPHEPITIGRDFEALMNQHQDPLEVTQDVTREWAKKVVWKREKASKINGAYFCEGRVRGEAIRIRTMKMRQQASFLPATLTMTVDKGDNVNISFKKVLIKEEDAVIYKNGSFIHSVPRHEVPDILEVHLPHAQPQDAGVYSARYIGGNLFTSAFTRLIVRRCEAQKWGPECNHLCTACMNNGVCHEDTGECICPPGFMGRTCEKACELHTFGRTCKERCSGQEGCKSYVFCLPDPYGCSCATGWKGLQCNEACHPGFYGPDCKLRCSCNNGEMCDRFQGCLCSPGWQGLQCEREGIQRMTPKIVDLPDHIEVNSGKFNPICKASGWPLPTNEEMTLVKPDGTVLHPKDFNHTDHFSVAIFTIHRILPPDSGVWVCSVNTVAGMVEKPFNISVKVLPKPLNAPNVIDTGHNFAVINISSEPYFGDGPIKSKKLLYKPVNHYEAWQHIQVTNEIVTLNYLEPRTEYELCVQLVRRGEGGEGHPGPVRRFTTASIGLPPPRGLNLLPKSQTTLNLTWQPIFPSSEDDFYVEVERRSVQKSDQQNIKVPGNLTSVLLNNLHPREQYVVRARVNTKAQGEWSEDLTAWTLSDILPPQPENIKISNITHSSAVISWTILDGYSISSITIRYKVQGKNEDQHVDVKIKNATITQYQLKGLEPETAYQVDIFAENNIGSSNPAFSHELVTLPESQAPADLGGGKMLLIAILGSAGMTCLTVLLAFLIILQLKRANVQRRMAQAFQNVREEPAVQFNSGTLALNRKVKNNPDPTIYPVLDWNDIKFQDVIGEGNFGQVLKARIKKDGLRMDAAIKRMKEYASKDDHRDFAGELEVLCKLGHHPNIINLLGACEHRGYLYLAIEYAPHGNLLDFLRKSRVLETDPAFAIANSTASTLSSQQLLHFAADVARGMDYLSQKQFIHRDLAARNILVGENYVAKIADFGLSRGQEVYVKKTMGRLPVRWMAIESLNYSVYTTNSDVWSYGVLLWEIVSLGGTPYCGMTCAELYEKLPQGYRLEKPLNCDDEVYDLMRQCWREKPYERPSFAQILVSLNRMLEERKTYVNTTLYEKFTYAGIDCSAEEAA
Description: Assay 1: Tie2 ELISA Assay
Cellular activity of compounds of the present invention as inhibitors of Tie2 kinase activity was measured employing a Tie2 ELISA assay as described in the following paragraphs. Herein CHO cell-cultures, which are stably transfected by known techniques with Tie2 using DHFR deficiency as selection marker, are stimulated by angiopoietin-2. The specific autophosphorylation of Tie2 receptors is quantified with a sandwich-ELISA using anti-Tie2 antibodies for catch and anti-phosphotyrosine antibodies coupled to HRP for detection.
• 96well tissue culture plate, sterile, Greiner • 96well FluoroNunc plate MaxiSorp Surface C, Nunc • 96well plate polypropylene for compound dilution in DMSO • CHO Tie2/DHFR (transfected cells) • PBS−; PBS++, DMSO • MEM alpha Medium with Glutamax-I without Ribonucleosides and • Deoxyribonucleosides (Gibco #32561-029) • with 10% FCS after dialysis! and 1% PenStrep • Lysis buffer: 1 Tablet “Complete” protease inhibitor • 1 cap Vanadate (1 mL>40 mg/mL; working solution 2 mM) • ad 50 mL with Duschl-Puffer • pH 7.6 • Anti-Tie2-antibody 1: 425 in Coating Buffer pH 9.6 • Stock solution: 1.275 mg/mL>working.: 3 μg/mL • PBST: 2 bottles PBS(10×)+10 ml Tween, fill up with VE-water • RotiBlock 1: 10 in VE-water • Anti-Phosphotyrosine HRP-Conjugated 1: 10000 in 3% TopBlock • 3% TopBlock in PBST • BM Chemiluminescence ELISA Substrate (POD) • solution B 1: 100 solution A • SF9 cell culture medium • Ang2-Fc in SF9 cell culture medium Cell Experiment: • Dispense 5×10^4 cells/well/98 μL in 96well tissue culture plate • Incubate at 37° C./5% CO2 • After 24 h add compounds according to desired concentrations • Add also to control and stimulated values without compounds 2 μL DMSO • And mix for a few min at room temperature • Add 100 μL Ang2-Fc to all wells except control, which receives insect medium • Incubate 20 min at 37° C. • Wash 3× with PBS++ • Add 100 μl Lysis buffer/well and shake a couple of min at room temperature • Store lysates at […] before utilizing for the ELISA Performance of Sandwich-ELISA • Coat 96well FluoroNunc Plate MaxiSorp Surface C with anti-Tie2 mAb 1: 425 in Coating buffer pH 9.6; 100 μL/well overnight at 4° C. • Wash 2× with PBST • Block plates with 250 μL/well RotiBlock 1: 10 in VE-water • Incubate for 2 h at room temperature or overnight at 4° C. shaking • Wash 2× in PBST • Add thawed lysates to wells and incubate overnight shaking at 4° C. • Wash 2× with PBST • Add 100 μL/well anti-Phosphotyrosine HRP-Conjugated 1:10000 in 3% TopBlock (3% TopBlock in PBST) and incubate overnight under shaking • Wash 6× with PBST • Add 100 μL/well BM Chemiluminescence ELISA Substrate (POD) • solutions 1 und 2 (1:100) • Determine luminescence with the LumiCount. Assay 2: Tie-2-Kinase HTRF-Assay without kinase preactivation

IC50 [1] [nM] | IC50 [2] [nM] | Structure (SMILES)
> 10000 | < 500 | C[C@H](CO)Nc1nc(Nc2ccc(S(C)(=N)=O)cc2)ncc1C#Cc1ccccc1 (mixture of isomers) [Example 1.2, (RS)-S-(4-[4-((R)-2-Hydroxy-1-methyl-ethylamino)-5-(phenylethynyl)-pyrimidin-2-ylamino]-phenyl)-S-methylsulfoximide]
> 10000 | < 500 | Cc1cc(C#Cc2cnc(Nc3ccc(S(C)(=N)=O)cc3)nc2N[C@H](C)CO)ccc1F (mixture of isomers) [Example 1.13, (RS)-S-(4-[5-(4-Fluoro-3-methyl-phenyl-ethynyl)-4-((R)-2-hydroxy-1-methyl-ethylamino)-pyrimidin-2-ylamino]-phenyl)-S-methylsulfoximide]
> 10000 | < 500 | CC(C)NC(=O)N=S(C)(=O)c1cccc(Nc2ncc(C#Cc3cccc(O)c3)c(N[C@H](C)CO)n2)c1 (mixture of isomers) [Example 1.15, (RS)-S-(3-[4-((R)-2-Hydroxy-1-methyl-ethylamino)-5-(3-hydroxy-phenylethynyl)-pyrimidin-2-ylamino]-phenyl)-N-(isopropylcarbamoyl)-S-methylsulfoximide]
> 10000 | < 500 | COc1ccc(C#Cc2cnc(Nc3cccc(S(C)(=N)=O)c3)nc2N[C@H](C)CO)cc1 (mixture of isomers) [Example 1.17, (RS)-S-(3-[4-((R)-2-Hydroxy-1-methyl-ethylamino)-5-(4-methoxy-phenylethynyl)-pyrimidin-2-ylamino]-phenyl)-S-methylsulfoximide]
> 10000 | < 500 | C[C@H](CO)Nc1nc(Nc2cccc(S(C)(=N)=O)c2)ncc1C#Cc1cccc(O)c1 (mixture of isomers) [Example 1.18, (RS)-S-(3-[4-((R)-2-Hydroxy-1-methyl-ethylamino)-5-(3-hydroxy-phenylethynyl)-pyrimidin-2-ylamino]-phenyl)-S-methylsulfoximide]
> 10000 | < 500 | Cc1ccccc1C#Cc1cnc(Nc2cccc(S(C)(=N)=O)c2)nc1N[C@H](C)CO (mixture of isomers) [Example 1.19, (RS)-S-(3-[4-((R)-2-Hydroxy-1-methyl-ethylamino)-5-(2-methyl-phenylethynyl)-pyrimidin-2-ylamino]-phenyl)-S-methylsulfoximide]
> 10000 | < 500 | Cc1cc(C#Cc2cnc(Nc3cccc(S(C)(=N)=O)c3)nc2N[C@H](C)CO)ccc1F (mixture of isomers) [Example 1.20, (RS)-S-(3-[5-(4-Fluoro-3-methyl-phenyl-ethynyl)-4-((R)-2-hydroxy-1-methyl-ethylamino)-pyrimidin-2-ylamino]-phenyl)-S-methylsulfoximide]
> 10000 | < 500 | Cc1ccc(C#Cc2cnc(Nc3ccc(S(C)(=N)=O)cc3)nc2N[C@H](C)CO)cc1 (mixture of isomers) [Example 1.5]
1000 to 10000 | < 500 | CCOC(=O)N=S(C)(=O)c1ccc(Nc2ncc(C#Cc3cccc(O)c3)c(N[C@H](C)CO)n2)cc1 (mixture of isomers) [Example 2.7]

Continued, compound first:

Structure (SMILES) | IC50 [1] [nM] | IC50 [2] [nM]
COc1ccc(C#Cc2cnc(Nc3ccc(S(C)(=N)=O)cc3)nc2N[C@H](C)CO)cc1 (mixture of isomers) [Example 1.1, (RS)—S-(4-[4-((R)-2-Hydroxy-1-methyl-ethylamino)-5-(4-methoxy-phenylethynyl)-pyrimidin-2-ylamino]-phenyl)-S-methylsulfoximide] | > 10000 | < 500
CCc1ccc(C#Cc2cnc(Nc3ccc(S(C)(=N)=O)cc3)nc2N[C@H](C)CO)cc1 (mixture of isomers) [Example 1.8, (RS)-S-(4-[5-(4-Ethyl-phenylethynyl)-4-((R)-2-hydroxy-1-methyl-ethylamino)-pyrimidin-2-ylamino]-phenyl)-S-methylsulfoximide] | > 10000 | < 500
C[C@H](CO)Nc1nc(Nc2ccc(S(C)(=N)=O)cc2)ncc1C#Cc1ccc(F)cc1 (mixture of isomers) [Example 1.9, (RS)-S-(4-[5-(4-Fluoro-phenyl-ethynyl)-4-((R)-2-hydroxy-1-methyl-ethylamino)-pyrimidin-2-ylamino]-phenyl)-S-methylsulfoximide] | > 10000 | < 500
Cc1ccccc1C#Cc1cnc(Nc2ccc(S(C)(=N)=O)cc2)nc1N[C@H](C)CO (mixture of isomers) [Example 1.3] | > 10000 | < 500
CCNc1nc(Nc2ccc(S(C)(=N)=O)cc2)ncc1C#Cc1ccc(F)c(C)c1 (racemic) [Example 1.24, (RS)-S-(4-[4-ethylamino-5-(4-fluoro-3-methyl-phenyl-ethynyl)-pyrimidin-2-ylamino]-phenyl)-S-methylsulfoximide] | 1000 to 10000 | < 500
CCNc1nc(Nc2ccc(S(C)(=N)=O)cc2)ncc1C#Cc1ccc(OC)cc1 (racemic) [Example 1.26, (RS)-S-(4-[4-ethylamino-5-(4-methoxy-phenyl-ethynyl)-pyrimidin-2-ylamino]-phenyl)-S-methylsulfoximide] | 1000 to 10000 | < 500
CS(=N)(=O)c1cccc(Nc2ncc(C#Cc3cccc(O)c3)cn2)c1 (racemic) [Example 4.2, (RS)—S-(3-[5-(3-hydroxy-phenylethynyl)-pyrimidin-2-ylamino]-phenyl)-S-methylsulfoximide] | > 10000 | < 500
